Data set [1] concerns the target T1, VEGF-A165/NRP-2 complex (Homo sapiens, UniProt O60462).
T1 construct: purchased R&D Systems
T1 sequence (O60462 23-864 limits assumed): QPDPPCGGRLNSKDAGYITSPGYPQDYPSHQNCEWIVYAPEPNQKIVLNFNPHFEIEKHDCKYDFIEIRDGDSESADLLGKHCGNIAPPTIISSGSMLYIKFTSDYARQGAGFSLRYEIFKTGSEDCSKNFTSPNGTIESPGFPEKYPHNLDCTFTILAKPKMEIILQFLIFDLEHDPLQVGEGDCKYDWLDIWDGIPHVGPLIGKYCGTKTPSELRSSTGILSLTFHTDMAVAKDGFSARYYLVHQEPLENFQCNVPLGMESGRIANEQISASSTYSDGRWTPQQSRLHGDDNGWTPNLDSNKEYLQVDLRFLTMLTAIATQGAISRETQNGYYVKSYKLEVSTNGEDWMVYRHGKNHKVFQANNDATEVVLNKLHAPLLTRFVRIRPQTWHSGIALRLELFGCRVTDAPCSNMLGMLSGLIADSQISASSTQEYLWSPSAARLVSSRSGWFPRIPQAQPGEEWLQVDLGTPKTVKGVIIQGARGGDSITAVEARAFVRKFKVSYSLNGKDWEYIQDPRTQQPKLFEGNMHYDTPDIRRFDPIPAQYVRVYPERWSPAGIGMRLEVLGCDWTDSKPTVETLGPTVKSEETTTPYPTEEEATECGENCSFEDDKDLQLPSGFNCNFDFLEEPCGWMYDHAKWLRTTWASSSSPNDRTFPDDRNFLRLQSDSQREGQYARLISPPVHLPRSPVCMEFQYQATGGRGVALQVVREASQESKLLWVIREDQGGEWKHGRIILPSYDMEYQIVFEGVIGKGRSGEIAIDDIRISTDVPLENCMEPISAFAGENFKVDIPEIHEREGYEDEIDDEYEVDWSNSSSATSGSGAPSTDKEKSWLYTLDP
Put plainly: Competitive ELISA-like assay, VEGF-A165/NRP-2 complex formation. Type of data set: binding. The conditions noted are these: tested 0.1–10 µM. The source says:
(§1) Amino acid sequence homology for primary structures of NRP-1 and NRP-2 is 44% [81, 82]. Structural studies have shown that both receptors bind VEGF-A165 using a conserved binding pocket core, formed by the b1 subdomain loops. VEGF-A165 interacts also with VEGF-R1 and R2 receptors by different fragments encoded by exons 1–5 [84, 85]. Affinity studies were done using modified ELISA-like assay, performed in the same manner as affinity tests for NRP-1 after optimization of method for individual protein. […] However, this value is more than two times higher compared to VEGF-A165/NRP-1 complex inhibition.
(§2) This method was previously described for NRP-1 [44, 45, 46]. […] Next, 100 µL chemiluminescent substrate was added, and luminescence was quantified using Tecan Infinite F200Pro microplate reader (Männedorf, Switzerland). […] Percentages of inhibition were calculated by the following formula:100% − [[(S − N)/(P − N)]∙100%](1) where S is the signal intensity measured in wells with urea–peptide hybrid. The IC50 of each urea–peptide hybrid was calculated using the nonlinear regression function with GraphPad Prism Version-5.01 (GraphPad Software, San Diego, CA, USA). […]
On the technique in general: An ELISA detects its analyte on a solid surface through an enzyme-linked reagent.

The target in data set [2] is T2, VEGF-A165/VEGF-R1 complex (Homo sapiens, UniProt P17948).
T2 construct: purchased R&D Systems
Put plainly: Competitive ELISA-like assay, VEGF-A165/VEGF-R1 complex formation. Type of data set: binding.
Source text: as §1, §2

Data set [3] is described as follows: In vitro enzymatic stability in human blood serum (LC-SWATH-MS). Type of data set: in vitro ADME. The conditions noted are these: human blood serum (pooled from four healthy persons), 37 °C, after 96 h, read-out: compound still intact. As for the experimental part: Rapid renal clearance and enzymatic degradation are classified as most important disadvantages of peptides as drugs. Covalent linkage to plasma proteins or chemical modifications, including amide bond modifications, might improve their half-lives. We performed proteolytic stability studies in human blood serum to investigate whether the introduction of urea bonds affected the half-lives of compounds from each of synthesized group of hybrids. Compounds 3, 6 and 7 were incubated with human serum at 37 °C. Samples were taken at different time intervals and analyzed using LC-SWATH-MS [88, 89, 90]. […] Hybrids 6 and 7 were stable toward enzymatic degradation, with 50% of each compound still being intact after 96 h (Figure 5). […] Overall, it can be concluded that the substitution of an amide bond with a urea bond has a positive effect on the proteolytic stability of the examined inhibitors.
The study was conducted in full accordance with ethical principles in accordance with the ICH E6 (R2) Guideline for Good Clinical Practice and the Code of Good Customs in Science developed by the Polish Academy of Sciences. Signed consent for using serum was obtained from volunteers. The Rector’s Commission for Ethics of Scientific Research with Human Participation, University of Warsaw, Warsaw, Poland gave the ethical approval (approval number 51/2020). Human blood from four healthy persons was directly drawn into evacuated tubes and left undisturbed at room temperature for 1 h to clot. Tubes were centrifuged at 2500× g for 10 min to prevent possible platelet activation. Serum was pipetted out of the blood collection tubes, pooled and collected in microtubes.
A degradation assay was adapted from a method described previously. Human blood serum was preactivated in Eppendorf ThermoMixer® Comfort (Hamburg, Germany) at 37 °C for 20 min (350 rpm). Next, 20 μL of aqueous urea–peptide hybrid stock solution was added to give ∼750 μg/mL final compound concentration, and incubation was continued. At selected time intervals, 50 μL of the mixture was collected and quenched by adding 200 μL of ACN:H2O:FA mixture (89:10:1, v:v:v). The obtained suspension was vortexed for 1 min (3000 min^−1) and centrifuged for 10 min in 4 °C (11,000× g). 100 μL of supernatant was collected and lyophilized. The samples reconstituted in 1 mL of 10 mM ammonium formate with 0.1% FA were subjected to LC-MS. Relative concentration at time intervals was calculated using peak area of either individual or most intense fragment of compound of interest. Analyst software version 1.7.1 was used for data acquisition, Peak View 2.2 and MultiQuant 2.1 (Sciex, ON) were used for data processing. Detailed analytical data can be found in Supplementary Materials (Figures S17–S45). […]

Starred links: 1 amine or outer side, 2 acyl side, 3 side chain; linkers in the order of their positions; H or OH if unused. Non-standard residues stand in square brackets, D forms with d. Residues, ends and D or L forms follow the SMILES beside them. Groups on a side chain read outwards from the residue. ξ: configuration not given here. *: point of attachment. Oic(3aξ,7aξ) = O=C(O)[C@@H]1CC2CCCCC2N1; X1 = N=C(N)NCCCC[C@H](N)CN*; Dab = NCC[C@H](N)C(=O)O; CO = O=C([*:1])[*:2]

Broadly, the IC50 is the midpoint of a concentration-inhibition curve. A low value points to higher potency.

T2 sequence (P17948 27-756 limits assumed, one chain of several): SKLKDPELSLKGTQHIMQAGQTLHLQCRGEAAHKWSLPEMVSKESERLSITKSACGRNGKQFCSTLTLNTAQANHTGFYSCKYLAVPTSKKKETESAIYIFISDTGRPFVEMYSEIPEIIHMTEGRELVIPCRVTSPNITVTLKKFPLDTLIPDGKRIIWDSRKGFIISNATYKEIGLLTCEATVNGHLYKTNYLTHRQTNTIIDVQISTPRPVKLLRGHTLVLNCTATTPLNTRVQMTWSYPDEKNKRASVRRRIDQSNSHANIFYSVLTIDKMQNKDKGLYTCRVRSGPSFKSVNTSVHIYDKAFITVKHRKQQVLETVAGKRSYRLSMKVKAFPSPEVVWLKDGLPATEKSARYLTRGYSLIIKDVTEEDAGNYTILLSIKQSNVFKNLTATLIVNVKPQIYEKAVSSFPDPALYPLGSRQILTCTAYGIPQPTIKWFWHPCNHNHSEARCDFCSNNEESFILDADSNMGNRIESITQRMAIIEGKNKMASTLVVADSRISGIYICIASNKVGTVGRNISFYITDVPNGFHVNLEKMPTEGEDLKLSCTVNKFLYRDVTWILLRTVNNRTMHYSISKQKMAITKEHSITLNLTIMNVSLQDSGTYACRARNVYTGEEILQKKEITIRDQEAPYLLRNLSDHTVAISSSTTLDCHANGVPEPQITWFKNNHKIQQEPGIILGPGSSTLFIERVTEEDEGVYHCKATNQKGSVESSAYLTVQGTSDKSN

On to `N=C(N)NCCCC[C@H](N)CNC(=O)NCC[C@H](N)C(=O)N[C@@H](CCN)C(=O)N1C2CCCCC2C[C@H]1C(=O)N[C@@H](CCCNC(=N)N)C(=O)O` (stereo partly drawn) [Compound 6, H-Dab(hArg^U)Dab-Oic-Arg-OH] (H-[Dab]([CO-X1])[Dab][Oic(3aξ,7aξ)]R-OH), for which the IC50 in data set [1] was 480 nM. Further, the “IC50, VEGF-A165/VEGF-R1 complex formation” value in data set [2] is reported as “no affinity”. The remaining at 96 h in data set [3] is 50%.

The values are drawn from PMC7793531 (International Journal of Molecular Sciences, 2020).
